Assay results taken from BindingDB's records for doi:10.1021/jm0494669 (Italy. Vinc, 2004).
pIC50: −log10 of the molar value.

Target: RNA-directed RNA polymerase (Hepacivirus hominis, UniProt Q8JXU8)
Assay: Inhibitory concentration required to inhibit HCV RNA dependent RNA polymerase Nonstructural protein 5B is determined

Sequence of RNA-directed RNA polymerase (Q8JXU8 whole entry): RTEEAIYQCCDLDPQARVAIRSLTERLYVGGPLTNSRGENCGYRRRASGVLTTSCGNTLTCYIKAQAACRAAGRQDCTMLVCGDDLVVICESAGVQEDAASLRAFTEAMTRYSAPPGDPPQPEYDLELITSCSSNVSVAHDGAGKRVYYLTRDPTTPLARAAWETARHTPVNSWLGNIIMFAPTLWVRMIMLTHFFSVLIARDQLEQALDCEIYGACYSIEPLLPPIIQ

O=C(O)C(=O)CC(=O)c1ccccc1
pIC50: 5.24
